Test results from PMC3790769, “Ansamitocin P3 Depolymerizes Microtubules and Induces Apoptosis by Binding to Tubulin at the Vinblastine Site” (PLoS ONE, 2013).

Molecular target: T1, tubulin
T1 construct: tubulin isolated from goat brain (alpha-beta dimer); with alpha-tubulin/beta-tubulin heterodimer
Experiment: intrinsic tryptophan fluorescence quenching of purified tubulin; supported by reduced DTNB cysteine modification
Format: binding, Capra hircus

COc1cc2cc(c1Cl)N(C)C(=O)C[C@H](OC(=O)C(C)C)[C@]1(C)O[C@H]1[C@H](C)[C@@H]1C[C@@](O)(NC(=O)O1)[C@H](OC)/C=C/C=C(\C)C2 [Ansamitocin P3]
Kd: 1300 ± 700 nM
